{"source": "patent EP0900210B1", "about": "“ANTIVIRALLY ACTIVE HETEROCYCLIC AZAHEXANE DERIVATIVES” (Novartis AG, priority 1996, dated 1997)", "note": "pIC50: −log10 of the molar value.", "data": [{"molecular_target": "T1, HIV-1-protease (Human immunodeficiency virus type 1 group M subtype B, UniProt P04585)", "T1 construct": "made in house", "test": "Inhibition of HIV-1-protease with icosapeptide substrate […] (HPLC)", "type": "biochemical", "conditions": "icosapeptide RRSNQVSQNYPIVQNIQGRR 122 µM, 20 mM MES pH 6.0, one hour at 37°C; read-out: IC50", "procedure": "(§1) The inhibitory action of the compounds of formula I on the proteolytic activity of HIV-1-protease can be shown, for example, according to known procedures (see A. D. Richards et al., J. Biol. Chem. 265(14), 7733-7736 (1990)). In that method the inhibition of the action of HIV-1-protease (preparation: see S. Billich et al., J. Biol. Chem. 263(34), 17905-17908 (1990)) is measured in the presence of the icosapeptide […] (a synthetic substrate of HIV-1-protease, prepared by peptide synthesis in accordance with known procedures (see J. Schneider et al., Cell 54, 363-368 (1988)), which contains as substrate analogue one of the cleavage sites of the gag-precursor protein (natural substrate of HIV-1-protease). That substrate and its cleavage products are analysed by high performance liquid chromatography (HPLC).\n(§2) The test compound is dissolved in dimethyl sulfoxide. The enzymatic test is carried out by adding suitable dilutions of the inhibitor in 20 mM β-morpholinoethanesulfonic acid (MES) buffer pH 6.0 to the test mixture. That mixture consists of the above-mentioned icosapeptide (122 µM) in 20 mM MES-buffer pH 6.0. 100 µl are used per test batch. The reaction is started by the addition of […] of HIV-1-protease solution and is stopped after one hour's incubation at 37°C by the addition of 10 µl of 0.3M HClO4. After centrifugation of the sample at 10 000 x g for 5 minutes, 20 µl of the resulting supernatant are applied to a 125 x 4.6 mm Nucleosil® C18-5m-HPLC column (reversed-phase material supplied by Macherey & Nagel, Düren, FRG, based on silica gel that has been charged with C18alkyl chains). The uncleaved icosapeptide and its cleavage products are eluted from the column by means of the following gradient: 100 % eluant 1 → 50 % eluant 1 + 50 % eluant 2 (eluant 1: 10 % acetonitrile, 90 % H2O, 0.1 % trifluoroacetic acid (TFA); eluant 2: 75 % acetonitrile, 25 % H2O, 0.08 % TFA) for 15 minutes, throughflow rate 1 ml/min. The quantification of the eluted peptide fragments is carried out by measuring the peak height of the cleavage product at 215 nm.\n(§3) Using the test system described above with the icosapeptide […], the IC50 values given below are obtained for the following Examples: […]", "values": [{"molecule": "1-[4-(Pyrazin-2-yl)-phenyl]-4(S)-hydroxy-2-[N-(N-methoxycarbonyl-(L)-valyl)amino]-5(S)-[N-(N-methoxycarbonyl-(L)-tert-leucyl)amino]-6-phenyl-2-azahexane [Example 44]", "pIC50": 7.54}]}, {"molecular_target": "T1, HIV-1-protease", "test": "Inhibition of HIV-1-protease with icosapeptide substrate […] (HPLC)", "type": "biochemical", "conditions": "icosapeptide […] 122 µM, 20 mM MES pH 6.0, one hour at 37°C; read-out: IC50", "procedure": "as §1, §2, §3", "values": [{"molecule": "COC(=O)N[C@H](C(=O)N[C@@H](Cc1ccccc1)[C@@H](O)CN(Cc1ccc(-c2nnnn2C)cc1)NC(=O)[C@@H](NC(=O)OC)C(C)(C)C)C(C)(C)C", "note": "[27 (1-methyl-1H-tetrazolyl isomer), 1-[4-(1-methyl-1H-tetrazol-5-yl)-phenyl]-4(S)-hydroxy-5(S)-2,5-bis[N-(N-methoxycarbonyl-(L)-tert-leucyl)amino]-6-phenyl-2-azahexane]", "pIC50": 7.29}, {"molecule": "COC(=O)N[C@H](C(=O)N[C@@H](Cc1ccccc1)[C@@H](O)CN(Cc1ccc(-c2cncs2)cc1)NC(=O)[C@@H](NC(=O)OC)C(C)C)C(C)C", "note": "[Example 1, 1-[4-(Thiazol-5-yl)-phenyl]-4(S)-hydroxy-5(S)-2,5-bis[N-(N-methoxycarbonyl-(L)-valyl)amino]-6-phenyl-2-azahexane]", "pIC50": 7.49}, {"molecule": "COC(=O)N[C@H](C(=O)NN(Cc1ccc(-c2cncs2)cc1)C[C@H](O)[C@H](Cc1ccccc1)NC(=O)[C@@H](NC(=O)OC)C(C)(C)C)C(C)C", "note": "[Example 2, 1-[4-(Thiazol-5-yl)-phenyl]-4(S)-hydroxy-2-N-(N-methoxycarbonyl-(L)-valyl)-amino-5(S)-N-(N-methoxycarbonyl-(L)-tert-leucyl)amino-6-phenyl-2-azahexane]", "pIC50": 7.85}, {"molecule": "COC(=O)N[C@H](C(=O)N[C@@H](Cc1ccccc1)[C@@H](O)CN(Cc1ccc(-c2cncs2)cc1)NC(=O)[C@@H](NC(=O)OC)C(C)(C)C)C(C)(C)C", "note": "[Example 3, 1-[4-(Thiazol-5-yl)-phenyl]-4(S)-hydroxy-5(S)-2,5-bis[N-(N-methoxycarbonyl-(L)-tert-leucyl)amino]-6-phenyl-2-azahexane]", "pIC50": 7.39}, {"molecule": "CC[C@H](C)[C@H](NC(=O)OC)C(=O)NN(Cc1ccc(-c2cncs2)cc1)C[C@H](O)[C@H](Cc1ccccc1)NC(=O)[C@@H](NC(=O)OC)C(C)(C)C", "note": "[Example 4, 1-[4-(Thiazol-5-yl)-phenyl]-4(S)-hydroxy-2-N-(N-methoxycarbonyl-(L)-iso-leucyl)amino-5(S)-N-(N-methoxycarbonyl-(L)-tert-leucyl)amino-6-phenyl-2-azahexane]", "pIC50": 7.42}, {"molecule": "COC(=O)N[C@@H](CSC)C(=O)NN(Cc1ccc(-c2cncs2)cc1)C[C@H](O)[C@H](Cc1ccccc1)NC(=O)[C@@H](NC(=O)OC)C(C)(C)C", "note": "[Example 5, 1-[4-(Thiazol-5-yl)-phenyl]-4(S)-hydroxy-2-N-(N-methoxycarbonyl-(L)-S-methylcysteinyl)amino-5(S)-N-(N-methoxycarbonyl-(L)-tert-leucyl)amino-6-phenyl-2-azahexane]", "pIC50": 7.40}, {"molecule": "CCOC(=O)N[C@H](C(=O)NN(Cc1ccc(-c2cncs2)cc1)C[C@H](O)[C@H](Cc1ccccc1)NC(=O)[C@@H](NC(=O)OC)C(C)(C)C)C(C)C", "note": "[Example 6, 1-[4-(Thiazol-5-yl)-phenyl]-4(S)-hydroxy-2-N-(N-ethoxycarbonyl-(L)-valyl)-amino-5(S)-N-(N-methoxycarbonyl-(L)-tert-leucyl)amino-6-phenyl-2-azahexane]", "pIC50": 7.66}, {"molecule": "COC(=O)N[C@H](C(=O)N[C@@H](Cc1ccccc1)[C@@H](O)CN(Cc1ccc(-c2cncs2)cc1)NC(=O)[C@@H](NC(=O)OC)C(C)(C)C)C(C)C", "note": "[Example 7, 1-[4-(Thiazol-5-yl)-phenyl]-4(S)-hydroxy-2-N-(N-methoxcarbonyl-(L)-tert-leucyl)amino-5(S)-N-(N-methoxycarbonyl-(L)-valyl)amino-6-phenyl-2-azahexane]", "pIC50": 7.89}, {"molecule": "CCOC(=O)N[C@H](C(=O)NN(Cc1ccc(-c2cncs2)cc1)C[C@H](O)[C@H](Cc1ccccc1)NC(=O)[C@@H](NC(=O)OC)C(C)C)C(C)C", "note": "[Example 8, 1-[4-(Thiazol-5-yl)-phenyl]-4(S)-hydroxy-2-N-(N-ethoxycarbonyl-(L)-valyl)-amino-5(S)-N-(N-methoxycarbonyl-(L)-valyl)amino-6-phenyl-2-azahexane]", "pIC50": 8.00}, {"molecule": "CC[C@H](C)[C@H](NC(=O)OC)C(=O)NN(Cc1ccc(-c2cncs2)cc1)C[C@H](O)[C@H](Cc1ccccc1)NC(=O)[C@@H](NC(=O)OC)C(C)C", "note": "[Example 9, 1-[4-(Thiazol-5-yl)-phenyl]-4(S)-hydroxy-2-N-(N-methoxycarbonyl-(L)-isoleucyl)amino-5(S)-N-(N-methoxycarbonyl-(L)-valyl)amino-6-phenyl-2-azahexane]", "pIC50": 7.72}, {"molecule": "COC(=O)N[C@@H](CSC)C(=O)NN(Cc1ccc(-c2cncs2)cc1)C[C@H](O)[C@H](Cc1ccccc1)NC(=O)[C@@H](NC(=O)OC)C(C)C", "note": "[Example 10, 1-[4-(Thiazol-5-yl)-phenyl]-4(S)-hydroxy-2-N-(N-methoxycarbonyl-(L)-S-methylcysteinyl)amino-5(S)-N-(N-methoxycarbonyl-(L)-valyl)amino-6-phenyl-2-azahexane]", "pIC50": 7.70}, {"molecule": "CC[C@H](C)[C@H](NC(=O)OC)C(=O)N[C@@H](Cc1ccccc1)[C@@H](O)CN(Cc1ccc(-c2cncs2)cc1)NC(=O)[C@@H](NC(=O)OC)C(C)(C)C", "note": "[Example 11, 1-[4-(Thiazol-5-yl)-phenyl]-4(S)-hydroxy-2-N-(N-methoxycarbonyl-(L)-tert-leucyl)amino-5(S)-N-(N-methoxycarbonyl-(L)-iso-leucyl)amino-6-phenyl-2-azahexane]", "pIC50": 7.43}, {"molecule": "CC[C@H](C)[C@H](NC(=O)OC)C(=O)N[C@@H](Cc1ccccc1)[C@@H](O)CN(Cc1ccc(-c2cncs2)cc1)NC(=O)[C@@H](NC(=O)OC)C(C)C", "note": "[Example 12, 1-[4-(Thiazol-5-yl)-phenyl]-4(S)-hydroxy-2-N-(N-methoxycarbonyl-(L)-valyl)amino-5(S)-N-(N-methoxycarbonyl-(L)-iso-leucyl)amino-6-phenyl-2-azahexane]", "pIC50": 7.70}, {"molecule": "CC[C@H](C)[C@H](NC(=O)OC)C(=O)N[C@@H](Cc1ccccc1)[C@@H](O)CN(Cc1ccc(-c2cncs2)cc1)NC(=O)[C@@H](NC(=O)OC)[C@@H](C)CC", "note": "[Example 13, 1-[4-(Thiazol-5-yl)-phenyl]-4(S)-hydroxy-5(S)-2,5-bis[N-(N-methoxycarbonyl-(L)-iso-leucyl)amino]-6-phenyl-2-azahexane]", "pIC50": 7.49}, {"molecule": "CCOC(=O)N[C@H](C(=O)NN(Cc1ccc(-c2cncs2)cc1)C[C@H](O)[C@H](Cc1ccccc1)NC(=O)[C@@H](NC(=O)OC)[C@@H](C)CC)C(C)C", "note": "[Example 14, 1-[4-(Thiazol-5-yl)-phenyl]-4(S)-hydroxy-2-N-(N-ethoxycarbonyl-(L)-valyl)-amino-5(S)-N-(N-methoxycarbonyl-(L)-iso-leucyl)amino-6-phenyl-2-azahexane]", "pIC50": 7.51}, {"molecule": "CC[C@H](C)[C@H](NC(=O)OC)C(=O)N[C@@H](Cc1ccccc1)[C@@H](O)CN(Cc1ccc(-c2cncs2)cc1)NC(=O)[C@H](CSC)NC(=O)OC", "note": "[Example 15, 1-[4-(Thiazol-5-yl)-phenyl]-4(S)-hydroxy-2-N-(N-methoxycarbonyl-(L)-S-methylcysteinyl)amino-5(S)-N-(N-methoxycarbonyl-(L)-iso-leucyl)amino-6-phenyl-2-azahexane]", "pIC50": 7.30}, {"molecule": "COC(=O)N[C@H](C(=O)N[C@@H](Cc1ccccc1)[C@@H](O)CN(Cc1ccc(-c2nccs2)cc1)NC(=O)[C@@H](NC(=O)OC)C(C)(C)C)C(C)(C)C", "note": "[Example 16, 1-[4-(Thiazol-2-yl)-phenyl]-4(S)-hydroxy-5(S)-2,5-bis[N-(N-methoxycarbonyl-(L)-tert-leucyl)amino]-6-phenyl-2-azahexane]", "pIC50": 7.48}, {"molecule": "COC(=O)N[C@H](C(=O)N[C@@H](Cc1ccccc1)[C@@H](O)CN(Cc1ccc(-c2nccs2)cc1)NC(=O)[C@@H](NC(=O)OC)C(C)(C)C)C(C)C", "note": "[Example 17, 1-[4-(Thiazol-2-yl)-phenyl]-4(S)-hydroxy-2-N-(N-methoxycarbonyl-(L)-tert-leucyl)amino-5(S)-N-(N-methoxycarbonyl-(L)-valyl)amino-6-phenyl-2-azahexane]", "pIC50": 7.74}, {"molecule": "CC[C@H](C)[C@H](NC(=O)OC)C(=O)NN(Cc1ccc(-c2nccs2)cc1)C[C@H](O)[C@H](Cc1ccccc1)NC(=O)[C@@H](NC(=O)OC)C(C)C", "note": "[Example 18, 1-[4-(Thiazol-2-yl)-phenyl]-4(S)-hydroxy-2-N-(N-methoxycarbonyl-(L)-iso-leucyl)amino-5(S)-N-(N-methoxycarbonyl-(L)-valyl)amino-6-phenyl-2-azahexane]", "pIC50": 7.60}]}]}
